Reference: patent US20240101521A1, “DIAMINOTRIAZINE COMPOUNDS” (BASF SE, priority 2021, published 2024)

What was measured:
Assay in all cases: greenhouse pre-emergence herbicidal test
Type in all cases: in vivo
Settings in all cases: scale 0 to 100
Setaria faberi = tested on: Setaria faberi
Source text: (§1) The culture containers used were plastic flowerpots containing loamy sand with approximately 3.0% of humus as the substrate. The seeds of the test plants were sown separately for each species.
(§2) For the pre-emergence treatment, the active ingredients, which had been suspended or emulsified in water, were applied directly after sowing by means of finely distributing nozzles. The containers were irrigated gently to promote germination and growth and subsequently covered with transparent plastic hoods until the plants had rooted. This cover caused uniform germination of the test plants, unless this had been impaired by the active ingredients. For the post-emergence treatment, the test plants were first grown to a height of 3 to 15 cm, depending on the plant habit, and only then treated with the active ingredients which had been suspended or emulsified in water. For this purpose, the test plants were either sown directly and grown in the same containers, or they were first grown separately as seedlings and transplanted into the test containers a few days prior to treatment.
(§3) Depending on the species, the plants were kept at 10-25° C. or 20-35° C., respectively.
(§4) The test period extended over 2 to 4 weeks. During this time, the plants were tended, and their response to the individual treatments was evaluated.
(§5) Evaluation was carried out using a scale from 0 to 100. 100 means no emergence of the plants, or complete destruction of at least the aerial moieties, and 0 means no damage, or normal course of growth. A moderate herbicidal activity is given at values of at least 60, a good herbicidal activity is given at values of at least 70, and a very good herbicidal activity is given at values of at least 85.
(§6) The plants used in the greenhouse experiments were of the following species: […]

Alopecurus myosuroides = tested on: Alopecurus myosuroides
Source text: as §1, §2, §3, §4, §5, §6

Echinochloa crus-galli = tested on: Echinochloa crus-galli
Source text: as §1, §2, §3, §4, §5, §6

Amaranthus retroflexus = tested on: Amaranthus retroflexus
Source text: as §1, §2, §3, §4, §5, §6

Abutilon theophrasti = tested on: Abutilon theophrasti
Source text: as §1, §2, §3, §4, §5, §6

SMILES: COc1c(Cl)cc(F)c(F)c1Nc1nc(N)nc(C(F)CC(C)C)n1 (racemic) [Example 12]
- herbicidal activity (Setaria faberi; pre-emergence, 250 g/ha): 100%
- herbicidal activity (Alopecurus myosuroides; pre-emergence, 250 g/ha): 100%
- herbicidal activity (Echinochloa crus-galli; pre-emergence, 250 g/ha): 100%

SMILES: COc1c(Cl)cc(F)c(F)c1Nc1nc(N)nc(C2(F)CCCC2)n1 [Example 11]
- herbicidal activity (Setaria faberi; pre-emergence, 250 g/ha): 100%
- herbicidal activity (Alopecurus myosuroides; pre-emergence, 250 g/ha): 100%
- herbicidal activity (Echinochloa crus-galli; pre-emergence, 250 g/ha): 100%

SMILES: CC(C)(F)c1nc(N)nc(Nc2c(F)ccc(Br)c2OC2CC2)n1 [Example 13]
- herbicidal activity (Setaria faberi; pre-emergence, 62,5 g/ha): 100%
- herbicidal activity (Alopecurus myosuroides; pre-emergence, 62,5 g/ha): 100%
- herbicidal activity (Echinochloa crus-galli; pre-emergence, 62,5 g/ha): 100%

SMILES: Nc1nc(Nc2c(F)ccc(Br)c2OC2CC2)nc(C2(F)CCCC2)n1 [Example 14]
- herbicidal activity (Setaria faberi; pre-emergence, 125 g/ha): 100%
- herbicidal activity (Alopecurus myosuroides; pre-emergence, 125 g/ha): 98%
- herbicidal activity (Echinochloa crus-galli; pre-emergence, 125 g/ha): 98%

SMILES: CC#CCOc1c(Br)cc(F)c(F)c1Nc1nc(N)nc(C(C)(C)F)n1 [Example 15]
- herbicidal activity (Setaria faberi; pre-emergence, 125 g/ha): 100%
- herbicidal activity (Alopecurus myosuroides; pre-emergence, 125 g/ha): 100%
- herbicidal activity (Echinochloa crus-galli; pre-emergence, 125 g/ha): 100%

SMILES: CC#CCOc1c(Br)cc(F)c(F)c1Nc1nc(N)nc(C2(F)CCCC2)n1 [Example 16]
- herbicidal activity (Amaranthus retroflexus; pre-emergence, 250 g/ha): 100%
- herbicidal activity (Echinochloa crus-galli; pre-emergence, 250 g/ha): 100%
- herbicidal activity (Abutilon theophrasti; pre-emergence, 250 g/ha): 100%

SMILES: C#CCOc1c(Br)cc(F)c(F)c1Nc1nc(N)nc(C(C)(C)F)n1 [Example 17]
- herbicidal activity (Amaranthus retroflexus; pre-emergence, 250 g/ha): 100%
- herbicidal activity (Echinochloa crus-galli; pre-emergence, 250 g/ha): 100%
- herbicidal activity (Abutilon theophrasti; pre-emergence, 250 g/ha): 100%

SMILES: CC#CCOc1c(Cl)cc(F)c(F)c1Nc1nc(N)nc(C(C)(C)F)n1 [Example 18]
- herbicidal activity (Amaranthus retroflexus; pre-emergence, 62,5 g/ha): 100%
- herbicidal activity (Echinochloa crus-galli; pre-emergence, 62,5 g/ha): 100%
- herbicidal activity (Abutilon theophrasti; pre-emergence, 62,5 g/ha): 100%

SMILES: CCOc1c(Br)cc(F)c(F)c1Nc1nc(N)nc(C(C)(C)F)n1 [Example 19]
- herbicidal activity (Amaranthus retroflexus; pre-emergence, 62,5 g/ha): 100%
- herbicidal activity (Echinochloa crus-galli; pre-emergence, 62,5 g/ha): 100%
- herbicidal activity (Abutilon theophrasti; pre-emergence, 62,5 g/ha): 100%

SMILES: CCC#CCOc1c(Br)cc(F)c(F)c1Nc1nc(N)nc(C(C)(C)F)n1 [Example 20]
- herbicidal activity (Amaranthus retroflexus; pre-emergence, 62,5 g/ha): 100%
- herbicidal activity (Echinochloa crus-galli; pre-emergence, 62,5 g/ha): 100%
- herbicidal activity (Abutilon theophrasti; pre-emergence, 62,5 g/ha): 100%

SMILES: CC(C)(F)c1nc(N)nc(Nc2c(F)c(F)cc(Br)c2OCC#CC2CC2)n1 [Example 29]
- herbicidal activity (Setaria faberi; pre-emergence, 31 g/ha): 100%
- herbicidal activity (Amaranthus retroflexus; pre-emergence, 31 g/ha): 100%
- herbicidal activity (Abutilon theophrasti; pre-emergence, 31 g/ha): 100%

SMILES: CC(C)(F)c1nc(N)nc(Nc2c(F)c(F)cc(Cl)c2OCC#CC2CC2)n1 [Example 30]
- herbicidal activity (Setaria faberi; pre-emergence, 31 g/ha): 100%
- herbicidal activity (Alopecurus myosuroides; pre-emergence, 31 g/ha): 100%
- herbicidal activity (Abutilon theophrasti; pre-emergence, 31 g/ha): 100%

SMILES: CC(C)(F)c1nc(N)nc(Nc2c(F)c(F)cc(Br)c2OC(F)F)n1 [Example 31]
- herbicidal activity (Amaranthus retroflexus; pre-emergence, 250 g/ha): 100%
- herbicidal activity (Echinochloa crus-galli; pre-emergence, 250 g/ha): 100%
- herbicidal activity (Abutilon theophrasti; pre-emergence, 250 g/ha): 100%

SMILES: COc1c(F)cc(C)c(F)c1Nc1nc(N)nc(C(C)(C)F)n1 [Example 32, N4-(2,5-difluoro-6-methoxy-3-methyl-phenyl)-6-(1-fluoro-1-methyl-ethyl)-1,3,5-triazine-2,4-diamine]
- herbicidal activity (Amaranthus retroflexus; pre-emergence, 62,5 g/ha): 100%
- herbicidal activity (Echinochloa crus-galli; pre-emergence, 62,5 g/ha): 100%
- herbicidal activity (Abutilon theophrasti; pre-emergence, 62,5 g/ha): 100%

SMILES: COc1c(Br)cc(F)c(F)c1Nc1nc(N)nc(C(C)(F)CCl)n1 (stereo not drawn) [Example 33]
- herbicidal activity (Amaranthus retroflexus; pre-emergence, 62,5 g/ha): 100%
- herbicidal activity (Echinochloa crus-galli; pre-emergence, 62,5 g/ha): 98%
- herbicidal activity (Abutilon theophrasti; pre-emergence, 62,5 g/ha): 100%

SMILES: COc1c(Cl)cc(F)c(F)c1Nc1nc(N)nc(C(C)(F)CCl)n1 (stereo not drawn) [Example 34]
- herbicidal activity (Amaranthus retroflexus; pre-emergence, 62,5 g/ha): 100%
- herbicidal activity (Echinochloa crus-galli; pre-emergence, 62,5 g/ha): 100%
- herbicidal activity (Abutilon theophrasti; pre-emergence, 62,5 g/ha): 100%

SMILES: COc1c(Cl)cc(F)c(F)c1Nc1nc(N)nc(C2(F)CC2)n1 [Example 35]
- herbicidal activity (Amaranthus retroflexus; pre-emergence, 62,5 g/ha): 100%
- herbicidal activity (Echinochloa crus-galli; pre-emergence, 62,5 g/ha): 100%
- herbicidal activity (Abutilon theophrasti; pre-emergence, 62,5 g/ha): 100%

SMILES: COc1c(Cl)cc(F)c(F)c1Nc1nc(N)nc(C(C)(C)OC)n1 [Example 36]
- herbicidal activity (Amaranthus retroflexus; pre-emergence, 62,5 g/ha): 100%
- herbicidal activity (Echinochloa crus-galli; pre-emergence, 62,5 g/ha): 100%
- herbicidal activity (Abutilon theophrasti; pre-emergence, 62,5 g/ha): 100%

SMILES: COc1c(Cl)cc(F)c(F)c1Nc1nc(N)nc(C(C)(C)Cl)n1 [Example 37]
- herbicidal activity (Amaranthus retroflexus; pre-emergence, 62,5 g/ha): 100%
- herbicidal activity (Echinochloa crus-galli; pre-emergence, 62,5 g/ha): 100%
- herbicidal activity (Abutilon theophrasti; pre-emergence, 62,5 g/ha): 98%

SMILES: COc1c(Cl)cc(F)c(F)c1Nc1nc(N)nc(C(C)(F)F)n1 [Example 49, N4-(5-chloro-2,3-difluoro-6-methoxy-phenyl)-6-(1,1-difluoroethyl)-1,3,5-triazine-2,4-diamine]
- herbicidal activity (Amaranthus retroflexus; pre-emergence, 62,5 g/ha): 100%
- herbicidal activity (Echinochloa crus-galli; pre-emergence, 62,5 g/ha): 100%
- herbicidal activity (Abutilon theophrasti; pre-emergence, 62,5 g/ha): 100%

SMILES: COc1c(Br)cc(F)c(F)c1Nc1nc(N)nc(C(C)(F)F)n1 [Example 50]
- herbicidal activity (Setaria faberi; pre-emergence, 31 g/ha): 100%
- herbicidal activity (Amaranthus retroflexus; pre-emergence, 31 g/ha): 100%
- herbicidal activity (Abutilon theophrasti; pre-emergence, 31 g/ha): 80%

SMILES: COc1c(C)cc(Br)c(F)c1Nc1nc(N)nc(C(C)(C)F)n1 [Example 51]
- herbicidal activity (Setaria faberi; pre-emergence, 62 g/ha): 100%
- herbicidal activity (Amaranthus retroflexus; pre-emergence, 62 g/ha): 100%
- herbicidal activity (Abutilon theophrasti; pre-emergence, 62 g/ha): 100%
